Each molecule was assayed against T1, human CXCR3 (N-delta 4) (Homo sapiens, UniProt P49682) (assay: Human CXCR3 (N-delta 4) Scintillation Proximity Assay (SPA), [125I] IP-10 binding). Settings: IC50 rating; Ba/F3-hCXCR3 (N-delta 4) membranes, 25 pM [125I] IP-10; read-out: IC50.
T1 construct: CD8 leader (N); Flag tag (N); expressed in transfected cells; host or cells: mouse pro-B Ba/F3 cells, stably transfected with pME18Sneo-hCXCR3 (N-delta 4); membrane preparation
T1 sequence (P49682 5-368 limits assumed): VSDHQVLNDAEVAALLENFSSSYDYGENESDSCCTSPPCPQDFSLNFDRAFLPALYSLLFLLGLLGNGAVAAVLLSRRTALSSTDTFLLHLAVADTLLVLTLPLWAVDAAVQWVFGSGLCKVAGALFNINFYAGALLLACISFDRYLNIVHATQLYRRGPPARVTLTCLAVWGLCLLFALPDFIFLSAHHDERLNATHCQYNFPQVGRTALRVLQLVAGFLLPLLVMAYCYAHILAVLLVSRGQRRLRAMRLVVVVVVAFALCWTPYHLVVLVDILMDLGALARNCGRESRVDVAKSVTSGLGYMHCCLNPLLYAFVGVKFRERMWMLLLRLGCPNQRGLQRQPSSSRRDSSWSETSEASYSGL
In short: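 Membranes from mouse Ba/F3 pro-B cells stably expressing Flag-tagged human CXCR3 (N-delta 4), 2 μg per point, bound to WGA SPA beads. Compound titrations competed with 25 pM [125I] IP-10 for 3 hr at room temperature in HEPES buffer with Ca2+, Mg2+, NaCl, 1.0% BSA; bead-bound radioactivity counted, […] values reported.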

SMILES	IC50 [nM]
CCNc1nnc(-c2cnc(N3CCN(C4CCN(C(=O)c5ccc(Cl)s5)CC4)[C@@H](CC)C3)c(C)n2)o1 [Compound 149]	< 25
CC[C@H]1CN(c2ncc(-c3nnc(C)o3)nc2Cl)CCN1C1CCN(C(=O)c2ccc(Cl)nc2N)CC1 [Compound 151]	< 25
CCNc1nnc(-c2cnc(N3CCN(C4CCN(C(=O)c5ccc(Cl)cc5C)CC4)[C@@H](CC)C3)c(C)n2)o1 [Compound 156]	< 25
CCNc1nnc(-c2cnc(N3CCN(C4CCN(C(=O)c5ccc(Cl)cc5)CC4)[C@@H](CC)C3)c(CC)n2)o1 [Compound 158]	< 25
CCNc1nnc(-c2cnc(N3C[C@H](CC)N(C4CCN(C(=O)c5ccc(F)c(F)c5)CC4)C[C@H]3C)c(C)n2)o1 [Compound 160]	< 25
CCNc1nnc(-c2cnc(N3CCN(C4CCN([C@@H](CO)c5ccc(Cl)cc5)CC4)[C@@H](CC)C3)c(C)n2)o1 [Compound 162]	< 25
CCNc1nnc(-c2cnc(N3CCN(C4CCN(C(=O)c5ccc(Cl)c(F)c5)CC4)[C@@H](CC)C3)c(C)n2)o1 [Compound 164]	< 25
CCNc1nnc(-c2cnc(N3CCN(C4CCN(C(=O)c5ccc(Cl)cc5F)CC4)[C@@H](CC)C3)c(C)n2)o1 [Compound 165]	< 25
CCNc1nnc(-c2cnc(N3CCN(C4CCN(Cc5ccc(C(F)(F)F)cc5)CC4)[C@@H](CC)C3)c(C)n2)o1 [Compound 166]	< 25
CC[C@H]1CN(c2ncc(-c3nnc(N)o3)nc2C)[C@H](C)CN1C1CCN(Cc2ccc(OC(F)(F)F)cc2)CC1 [Compound 167]	< 25
CCNc1nnc(-c2cnc(N3C[C@H](CC)N(C4CCN(Cc5ccc(Cl)cc5O)CC4)C[C@H]3C)c(C)n2)o1 [Compound 168]	< 25
CCNc1nnc(-c2cnc(N3CCN(C4CCN(CCC(=O)c5ccc(Cl)cc5)CC4)[C@@H](CC)C3)c(C)n2)o1 [Compound 169]	< 25
CC[C@H]1CN(c2ncc(-c3nnc(N)o3)nc2C)[C@H](C)CN1C1CCN([C@H](C(=O)OC)c2ccc(Cl)cc2)CC1 [Compound 170]	25 to 100
CCNc1nnc(-c2cnc(N3CCN(C4CCN(C(=O)c5ccc(Cl)nc5N)CC4)[C@@H](CC)C3)c(CC)n2)o1 [Compound 173]	< 25
CCNc1nnc(-c2cnc(N3C[C@H](CC)N(C4CCN(C(CO)c5ccc(F)c(F)c5)CC4)C[C@H]3C)c(C)n2)o1 (stereo partly drawn) [Compound 175]	< 25
CC[C@H]1CN(c2ncc(-c3nnc(N)o3)nc2C)[C@H](C)CN1C1CCN([C@@H](C)c2ccc(OC(F)(F)F)cc2)CC1 [Compound 177]	< 25
CCNc1nnc(-c2cnc(N3CCN(C4CCN(C(=O)c5ccc(C(F)(F)F)nc5N)CC4)[C@@H](CC)C3)c(C)n2)o1 [Compound 184]	< 25
CCNc1nnc(-c2cnc(N3C[C@H](CC)N(C4CCN(Cc5ccc(OC(F)(F)F)cc5)CC4)C[C@H]3C)c(C)n2)o1 [Compound 185]	< 25
CC[C@H]1CN(c2ncc(-c3nnc(NC4(C)CC4)o3)nc2C)[C@H](C)CN1C1CCN(C(=O)c2ccc(Cl)nc2N)CC1 [Compound 186]	< 25
CCNc1nnc(-c2cnc(N3CCN(C4CCN(C(=O)c5cc(F)c(Cl)cc5F)CC4)[C@@H](CC)C3)c(Cl)n2)o1 [Compound 187]	< 25
CC[C@H]1CN(c2nc(N)c(-c3nnc(NC)o3)nc2Cl)CCN1C1CCN(C(C(=O)OC)c2ccc(Cl)cc2)CC1 (stereo partly drawn) [Compound 190]	< 25
CCNc1nnc(-c2cnc(N3C[C@H](CC)N(C4CCN(C(=O)c5ccc(Cl)cc5)CC4)C[C@H]3C)c(C(F)(F)F)n2)o1 [Compound 191]	< 25

Other lines, results leading:

IC50 [nM]	SMILES
< 25	CC[C@H]1CN(c2ncc(-c3nc[nH]n3)nc2C)[C@H](C)CN1C1CCN(Cc2ccc(OC(F)(F)F)cc2)CC1 [Compound 148]
< 25	CC[C@H]1CN(c2ncc(C3=NCCN3)nc2C)[C@H](C)CN1C1CCN(Cc2ccc(OC(F)(F)F)cc2)CC1 [Compound 150]
25 to 100	CCNc1nnc(-c2cnc(N3C[C@H](CC)N(C4CCN(C(=O)c5ccc(OC)cc5)CC4)C[C@H]3C)c(C)n2)o1 [Compound 152]
25 to 100	CCNc1nnc(-c2cnc(N3CCN(C4CCN(C(=O)c5ccc(CC)nc5N)CC4)[C@@H](CC)C3)c(C)n2)o1 [Compound 153]
< 25	CC[C@H]1CN(c2ncc(-c3nnc[nH]3)nc2C(F)(F)F)CCN1C1CCN(C(=O)c2ccc(Cl)cc2)CC1 [Compound 154]
< 25	CCNc1nnc(-c2cnc(N3CCN(C4CCN(C(=O)c5ccc(Cl)c(C)c5)CC4)[C@@H](CC)C3)c(C)n2)o1 [Compound 155]
< 25	CCNc1nnc(-c2nc(C)c(N3CCN(C4CCN(C(=O)c5ccc(Cl)cc5)CC4)[C@@H](CC)C3)nc2C)o1 [Compound 157]
< 25	CC[C@H]1CN(c2ncc(-c3nnc(NC(C)C)o3)nc2C)CCN1C1CCN(C(=O)c2ccc(F)c(F)c2)CC1 [Compound 159]
< 25	CC[C@H]1CN(c2ncc(-c3nnc(NC)o3)nc2C)[C@H](C)CN1C1CCN(C(=O)c2ccc(Cl)nc2N)CC1 [Compound 161]
< 25	CCNc1nnc(-c2cnc(N3CCN(C4CCN([C@H](CO)c5ccc(Cl)cc5)CC4)[C@@H](CC)C3)c(C)n2)o1 [Compound 163]
< 25	CC[C@H]1CN(c2ncc(-c3nnc(NC(C)C)o3)nc2C)CCN1C1CCN(C(=O)c2ccc(Cl)nc2N)CC1 [Compound 171]
< 25	CCNc1nnc(-c2nc(C)c(N3CCN(C4CCN(C(=O)c5ccc(Cl)nc5N)CC4)[C@@H](CC)C3)nc2N)o1 [Compound 174]
< 25	CCNc1nnc(-c2cnc(N3CCN(C4CCN(C(=O)c5ccc(C(F)(F)F)cc5)CC4)[C@@H](CC)C3)c(C)n2)o1 [Compound 176]
< 25	CC[C@H]1CN(c2ncc(-c3nnc(N)o3)nc2C)[C@H](C)CN1C1CCN([C@H](C)c2ccc(OC(F)(F)F)cc2)CC1 [Compound 178]
< 25	CCNc1nnc(-c2cnc(N3C[C@H](CC)N(C4CCN(Cc5ccc(F)cc5)CC4)C[C@H]3C)c(C(F)(F)F)n2)o1 [Compound 179]
< 25	CC[C@H]1CN(c2ncc(-c3nnc(NC4(C)CC4)o3)nc2C)[C@H](C)CN1C1CCN(C(=O)c2ccc(Cl)cc2)CC1 [Compound 180]
25 to 100	CCNc1nnc(-c2cnc(N3CCN(C4CCN(C(=O)c5ccc(Cl)nc5N)CC4)[C@@H](CC)C3)c(C3CC3)n2)o1 [Compound 181]
< 25	CCNc1nnc(-c2cnc(N3CCN(C4CCN(C(C(=O)OC)c5ccc(Cl)cc5)CC4)[C@@H](CC)C3)c(C)n2)o1 (stereo partly drawn) [Compound 182]
< 25	CCNc1nnc(-c2cnc(N3CCN(C4CCN(C(=O)c5ccc(C(F)(F)F)cc5N)CC4)[C@@H](CC)C3)c(C)n2)o1 [Compound 183]
< 25	CCNc1nnc(-c2cnc(N3C[C@H](CC)N(C4CCN(C(C(=O)OC)c5ccc(F)c(F)c5)CC4)C[C@H]3C)c(C)n2)o1 (stereo partly drawn) [Compound 188]
< 25	CCNc1nnc(-c2cnc(N3C[C@H](CC)N(C4CCN(C(=O)c5ccc(C(F)(F)F)nc5N)CC4)C[C@H]3C)c(C)n2)o1 [Compound 189]
< 25	CCOC(=O)CNc1nnc(-c2nc(C)c(N3CCN(C4CCN(C(=O)c5ccc(Cl)nc5N)CC4)[C@@H](CC)C3)nc2N)o1 [Compound 192]
< 25	CC[C@H]1CN(c2nc(N)c(-c3nnc(NCC(=O)NC)o3)nc2C)CCN1C1CCN(C(=O)c2ccc(Cl)nc2N)CC1 [Compound 193]
< 25	CC[C@H]1CN(c2nc(N)c(-c3nnc(NCC(=O)NC4CC4)o3)nc2C)CCN1C1CCN(C(=O)c2ccc(Cl)nc2N)CC1 [Compound 194]
25 to 100	CCOC(=O)CNc1nnc(-c2cnc(N3CCN(C4CCN(Cc5ccc(F)c(F)c5COCc5ccccc5)CC4)[C@@H](CC)C3)c(C)n2)o1 [Compound 195]
25 to 100	CC[C@H]1CN(c2ncc(-c3nnc(N(CC)S(=O)(=O)c4ccc(C)cc4)o3)nc2C)C(C)CN1C1CCN(C(=O)c2ccc(Cl)cc2)CC1 (stereo partly drawn) [Compound 196]

— US7868006B2, “Heterocyclic substituted piperazines with CXCR3 antagonist activity” (Schering Corporation, priority 2005, dated 2011)
